Results taken from patent publication US20090162351A1, “Transdiscal administration of inhibitors of p38 MAP kinase” (DePuy Spine, Inc., priority 2007, published 2009).
Several values for one entry are separate records, joined by “and”; a condition that tells them apart may be missing. Equal entries are not always repeated. Entries after “also recorded” stand apart in the source; their conditions may differ. Where two headings read alike, the source gives them in different places.

Assays:
Format in all cases: cell-based
chondrocytes = system: chondrocytes
Experimental: The LDH activity was determined calorimetrically in an enzymatic test based on the conversion of lactic acid to pyruvate in the presence of chromagenic substrate tetrazolium salt INT that was reduced to formazan.

[1] = system: IL-1β-stimulated PGE2 synthesis in bovine chondrocyte pellets / ARC tissues; test: Chondrocyte pellet / ARC culture model: Prostaglandin E2 assay; conditions: for PGE2 synthesis (in words): diacerein at 5.4 μM, rhein at 0.35 μM, 10 ng/ml IL-1β; for effect on IL-1β-stimulated PGE2 synthesis (in words): chondrocyte pellet / ARC model; for maximum inhibition of PGE2: bovine ARC tissues, IL-1β
From the text: (§1) Calf articular cartilage was obtained from the knee joints of eight to twelve month old animals and was processed within twenty-four hours after sacrifice. After removal of muscle and ligament, the cartilage was kept moist using phosphate buffer solution (PBS) to prevent tissue dehydration, and was aseptically peeled off from subchondral bone with a scalpel, and the cartilage pieces were further minced into smaller pieces (˜0.3-0.5×˜0.2-0.5 cm cubes). […] Chondrocytes were then enzymatically isolated from the tissue by incubation for overnight at 37° C. with gentle agitation in 0.2% collagenase in Dulbecco's modified eagle media (DMEM). After removal of tissue debris by filtration through cell strainer and the residual collagenase by 3× wash in PBS, cells were finally resuspended at a density of 2.5×10^6 cells/ml in chondrocyte medium. A 1 ml aliquot of the cell suspension was dispensed into either a 15 ml Falcon centrifuge tube or a 96 deep-well plate and centrifuged at 2000×g for five minutes. The chondrocyte pellets were incubated at 37° C. in a humidified atmosphere of 5% CO2 for two to three weeks with a medium change every other day.
(§2) As an alternative to using calf articular cartilage, a commercial Aliginate Recovered Chondrocytes (ARC) system was also used (Articular Engineering, LLC (Northbrook, Ill.)). Use of the commercial system cut down on labor and time in producing chondrocyte pellet. This system produced cartilaginous tissue in vitro using bovine chondrocytes. The first step consisted of culturing chondrocytes in alginate under conditions optimal for the formation of a cell-associated matrix (CM). The second step allowed these cells with their CM, after recovery, to rapidly form and become integrated into a solid mass of cartilage on a porous insert within two weeks.
(§3) Chondrocyte pellets were washed once with 1 ml of Chondrocyte Stimulation Medium and equilibrated in the same medium at room temperature for fifteen to thirty minutes. Compounds were dissolved in H2O, Ethanol or dimethyl sulfoxide (DMSO) (10^−2 M) according to suppliers' instructions and further diluted with Chondrocyte Stimulation Medium to the required concentrations. DMSO concentrations in the culture media should not exceed 1%; this concentration of DMSO has no effect on cartilage proteoglycan metabolism in response to cytokines.
The pellets were first treated with compounds at desired concentrations at 37° C. for one hour and then incubated for three to five days in the absence or presence of 10 ng/ml of IL-1β. At the end of the incubation, media and pellets were harvested and frozen for further analysis. Pellets were also fixed as needed in 4% (w/v) paraformaldehyde in PBS for histology analysis.
Prostaglandin E2 (PGE2) was measured with a STAT-Prostaglandin E2 EIA ELISA kit (Cayman Biochemicals). This assay is based on the competition between PGE2 from 50 μl samples and a PGE2-alkaline phosphatase conjugate for a limited amount of PGE2 monoclonal antibody in a reaction volume of 150 μl at room temperature for one hour. The antibody-PGE2 complex bound to a goat polyclonal anti-mouse IgG that had been previously attached to the well. After washing to remove any unbound reagents, para-nitrophenyl phosphate (pNPP) was added to the well. The product of this enzymatic reaction absorbs strongly at 412 nm. Because of the large range in response to IL-1β and other cytokines, PGE2 values were converted to log scale prior to doing t-tests.
To characterize the relative efficacies among different p38 MAP kinase inhibitors, dose-response curves were generated for both PGE2 and NO assays. […] After one hour of treatment, ARCs were stimulated with or without 7.5 ng/ml IL-1β and continued to incubate for five days before assay. The IL-1β-stimulated PGE2 synthesis or NO production was first calculated by subtraction of PGE2/NO levels in the absence of IL-1β from that in the presence of IL-1β. […]

[2] = system: bovine chondrocyte pellets / ARC tissues stimulated with IL-1β; test: Chondrocyte pellet / ARC culture model: GAG degradation assay; conditions: for concentration as low as which proteoglycan degradation was inhibited: chondrocyte pellets, 10 ng/ml IL-1β, five days; for effect on IL-1β-stimulated GAG degradation/release (in words): chondrocyte pellet / ARC model; for GAG Release, Pellet Assay (in words): Table 3B
From the text: A chondrocyte pellet culture model was developed for in vitro high throughput screening of therapeutic compounds for inhibition of IL-1β-stimulated matrix degradation. The chondrocyte pellet culture model can be used to detect various potential therapeutic compounds effective in blocking different processes caused by IL-1β stimulation. For example, IL-1β stimulation results in increased glycosaminoglycan (GAG) degradation, prostaglandin E2 (PGE2) synthesis and total nitrite/nitrate production. Compounds with different mechanisms of action may inhibit the increase of one or two or all three of these parameters. For this reason, screening by, for example, measuring only GAG release would be limited to detection of a specific class of inhibitors and may not detect compounds with diversified mechanisms of function which may be involved in inhibition of the IL-1 stimulated inflammatory process. The development of the chondrocyte pellet culture assay system in a 96-well plate made possible large-scale screening of potential therapeutic compounds with different mechanisms of action.
as §1, §2
This tissue is rich in cells surrounded by a cell-associated matrix that is degraded rapidly when the cells are exposed to IL-1. ARC tissues in 3 mm punches at delivery were first dispensed into a 96 deep-well plate, one punch per well, for compound treatment. The subsequent procedures were the same as those used for the chondrocyte pellets.
as §3
The pellets were first treated with compounds at desired concentrations at 37° C. for one hour and then incubated for three to five days in the absence or presence of 10 ng/ml of IL-1β. […]

[3] = chondrocyte pellet / ARC model, within the tested concentrations
[4] = Bos taurus, Chondrocyte, 120 h, bovine ARCs, 7.5 ng/ml IL-1β, five days, sigmoidal dose-response fit, read-out: PGE2, IC50
[5] = Bos taurus, Chondrocyte, Table 3B, read-out: PGE2 Inhibition, Pellet Assay, IC50
[6] = Bos taurus, Chondrocyte, read-out: GAG Release (inhibition), Pellet Assay
[7] = bovine ARCs, 7.5 ng/ml IL-1β, five days, sigmoidal dose-response fit, read-out: PGE2, IC50

| SMILES | cytotoxicity to chondrocytes, LDH (in words) (chondrocytes) | IC50 [1, 5] | inhibition at 10 µM [2, 6] | effect on IL-1β-stimulated GAG degradation/release (in words) [2] | GAG Release, Pellet Assay (in words) [2] | further results |
| --- | --- | --- | --- | --- | --- | --- |
| CC(=O)Oc1cccc2c1C(=O)c1c(OC(C)=O)cc(C(=O)O)cc1C2=O [Diacerein, reference compound] | cytotoxicity at higher concentrations |  |  |  |  | PGE2 synthesis (in words) ([1]; five days): no effect; concentration as low as which proteoglycan degradation was inhibited [2]: 0.054 µM; inhibitory effect for GAG vs lower concentrations (in words) ([2]; diacerein at 5.4 μM, rhein at 3.5 μM): weaker inhibitory effect |
| OCCC#Cc1nc(-c2ccc(F)cc2)c(-c2ccncc2)n1CCCc1ccccc1 [JNJ 3026582 (RWJ 67657), 4-[4-(4-fluorophenyl)-1-(3-phenylpropyl)-5-(4-pyridinyl)-1H-imidazol-2-yl]-3-butyn-1-ol] |  | 421 nM | ~90% | significantly inhibited; also recorded: significant effect |  | cytotoxicity to chondrocytes, LDH (in words) (chondrocytes; [3]): little cytoxicity; IC50 [1, 4]: 421 nM; effect on IL-1β-stimulated PGE2 synthesis (in words) [1]: inhibited |
| C[C@H](Nc1nccc(-c2c(-c3ccc(F)cc3)nc3nc(N)ccn23)n1)c1ccccc1 [JNJ 7583979 (RWJ 351958)] |  |  | 64% | significantly inhibited; also recorded: significant effect |  | cytotoxicity to chondrocytes, LDH (in words) (chondrocytes; [3]): little cytoxicity; inhibition at 0.5 µM ([1]; Bos taurus, Chondrocyte, at 0.5 μM): 100%; effect on IL-1β-stimulated PGE2 synthesis (in words) [1]: significantly inhibited; inhibition at 1 µM ([2]; Bos taurus, Chondrocyte, at 1 μM, read-out: GAG Release (inhibition), Pellet Assay): 10% |
| CC(=O)N1CCN(c2c(-c3ccncc3)c(-c3ccc(F)cc3)c(C#N)n2C)CC1 [JNJ 17089540 (RWJ 669307)] | little cytoxicity |  |  | little effect | No effect | IC50 ([1]; Table 3B, read-out: PGE2 Inhibition, Pellet Assay, IC50): 29600 nM; IC50 [1, 7]: 29600 nM |
| CO[C@H]1C[C@@H]2CC[C@@H](C)[C@@](O)(O2)C(=O)C(=O)N2CCCC[C@H]2C(=O)O[C@H]([C@H](C)C[C@@H]2CC[C@@H](O)[C@H](OC)C2)CC(=O)[C@H](C)/C=C(\C)[C@@H](O)[C@@H](OC)C(=O)[C@H](C)C[C@H](C)/C=C/C=C/C=C/1C [Rapamycin, reference compound] | little toxicity |  | 50% |  |  | inhibition at 10 µM ([1]; Bos taurus, Chondrocyte, at 10 μM): 47% |
| O=C(O)c1cc(O)c2c(c1)C(=O)c1cccc(O)c1C2=O [Rhein, reference compound] | higher toxicity |  |  |  |  | PGE2 synthesis (in words) ([1]; five days): no effect; concentration as low as which proteoglycan degradation was inhibited [2]: 0.035 µM |
| C[C@@H]1CN(Cc2ccc(F)cc2)[C@@H](C)CN1C(=O)c1cc2cc(C(=O)C(=O)N(C)C)[nH]c2cc1Cl [SCIO-282 (SD 282)] |  |  |  | little effect | No effect | cytotoxicity to chondrocytes, LDH (in words) (chondrocytes; [3]): little cytoxicity; maximum inhibition of PGE2 [1]: 96%; IC50 [1, 7]: 583 nM and 582 nM; effect on IL-1β-stimulated PGE2 synthesis (in words) [1]: inhibited |
| C[C@@H]1CN(Cc2ccc(F)cc2)[C@@H](C)CN1C(=O)c1cc2c(C(=O)C(=O)N(C)C)cn(C)c2cc1Cl [SCIO-469 (SD 469)] |  | 18 nM |  | no effect | No effect | increase of LDH level (chondrocytes; bovine, 100000 nM): 121%; IC50 [1, 4]: 107 nM; maximum inhibition of PGE2 [1]: 62%; IC50 [1, 7]: 107 nM |
| CC(C(=O)O)c1ccc(C(=O)c2cccs2)cc1 (stereo not shown) [Suprofen, reference compound] |  | 0.812 nM |  |  | No effect |  |
| COc1ccc(-n2nc(CCC(=O)N(C)O)cc2-c2ccc(Cl)cc2)cc1 [Tepoxalin, reference compound] |  | 3280 nM | 15% |  |  |  |
| Cc1ccc(C(=O)c2ccc(CC(=O)O)n2C)cc1 [Tolmetin, reference compound] |  | 673 nM |  |  | No effect |  |
